Legend:
[1] = molecular target: T1, wheat germ agglutinin (WGA); assay: imaging STD NMR, initial slopes (STD-AF0), Langmuir fit; type: binding, Triticum aestivum
T1 construct: gene WGA1

[2] = molecular target: T2, bovine serum albumin (BSA) (Bos taurus, UniProt P02769); assay: as above; type: binding
T2 construct: gene ALB
T2 sequence (P02769 25-607): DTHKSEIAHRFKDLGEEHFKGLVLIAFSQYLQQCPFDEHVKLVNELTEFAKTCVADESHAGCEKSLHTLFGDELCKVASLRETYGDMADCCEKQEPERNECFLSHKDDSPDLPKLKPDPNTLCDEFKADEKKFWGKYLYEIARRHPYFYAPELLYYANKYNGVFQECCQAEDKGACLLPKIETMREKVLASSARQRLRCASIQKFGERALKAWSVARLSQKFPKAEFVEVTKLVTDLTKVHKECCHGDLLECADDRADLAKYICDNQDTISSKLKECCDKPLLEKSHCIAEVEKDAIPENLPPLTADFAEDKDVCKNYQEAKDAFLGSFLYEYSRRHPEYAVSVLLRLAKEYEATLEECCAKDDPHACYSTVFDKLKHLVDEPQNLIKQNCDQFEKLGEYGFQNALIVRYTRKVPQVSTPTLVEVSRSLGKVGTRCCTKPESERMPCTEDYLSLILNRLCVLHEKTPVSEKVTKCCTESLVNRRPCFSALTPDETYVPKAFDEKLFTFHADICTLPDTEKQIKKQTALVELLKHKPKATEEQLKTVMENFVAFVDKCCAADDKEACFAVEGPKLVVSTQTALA

SMILES	Kd [1] [µM]	Kd [2] [µM]
CC(=O)N[C@H]1C(O)O[C@H](CO)[C@@H](O)[C@@H]1O (some centres unmarked) [GlcNAc]	2240 ± 180	–
N[C@@H](Cc1c[nH]c2ccccc12)C(=O)O [tryptophan]	–	231 ± 50

From article PMC10401705, “Imaging Saturation Transfer Difference (STD) NMR: Affinity and Specificity of Protein–Ligand Interactions from a Single NMR Sample” (Journal of the American Chemical Society, 2023)
